Measurements as given in publication PMC12134935, “Scientific hypothesis generation by large language models: laboratory validation in breast cancer treatment” (Journal of the Royal Society Interface, 2025).
pIC50: −log10 of the molar value. “Also recorded” adds a separate entry of the source. Read-outs that look alike come from different tables or passages of the source.

Experiments:
Type in all cases: cell-based
MCF10A = assay: Single drug treatments, viability/toxicity; conditions: Homo sapiens, MCF-10A, read-out: MCF10A IC50
From the text: (§1) In our experiments, breast cancer cells were exemplified by MCF7 (an epithelial breast cancer cell line); non-tumorigenic breast cells were exemplified by the epithelial cell line MCF10A. We provided GPT4 with a prompt that had several aims:
(§2) In an additional experiment, 12 drugs were retested from the first round (n ≥ 3 replicates). An ANOVA two-way test with three replicates was used to calculate the significance of changes to viability compared with the internal control drug allopurinol for both cell lines (electronic supplementary material, figures S6 and S7). Two of the retested drugs were initially used as positive controls for MCF7 (doxorubicin and fulvestrant).

MCF7 [1] = assay: Single drug treatments, viability/toxicity; conditions: for toxicity towards MCF7: doses up to 25 µM
MCF7 versus MCF10A = assay: Single drug specificity towards MCF7 compared with MCF10A; conditions: first round, MCF7 versus MCF10A viability
MCF7 [2] = assay: Single drug treatments, viability/toxicity; conditions: for reduction of viability of MCF7: two-way ANOVA vs allopurinol, concentrations up to 3.84 µM; for pIC50: Homo sapiens, MCF7, retest of drugs from first round, n ≥ 3 replicates, MCF7
From the text: as §1, §2

[3] = single drug, first round, maximum dose 25 µM
[4] = Homo sapiens, MCF7, single drug, first round, maximum dose 25 µM, read-out: MCF7 IC50
[5] = Homo sapiens, MCF7, read-out: MCF7 IC50

| Compound | pIC50 (MCF10A; [3]) | pIC50 (MCF7 [1]; [4]) | toxicity towards MCF7 (MCF7 [1]; single drug, first round) | also measured |
| --- | --- | --- | --- | --- |
| C[C@H]1O[C@H](O[C@H]2[C@H](O)[C@@H](O)[C@@H](O[C@H]3[C@H](O)[C@@H](O)C(O)O[C@@H]3CO)O[C@@H]2CO)[C@H](O)[C@@H](O)[C@@H]1N[C@H]1C=C(CO)[C@@H](O)[C@H](O)[C@H]1O (stereo partly drawn) [acarbose] | < 4.60 | < 4.60 |  |  |
| Oc1ncnc2[nH]ncc12 [allopurinol] | < 4.60 | < 4.60 |  |  |
| CC(C)NCC(O)COc1ccc(CC(N)=O)cc1 (stereo not drawn) [atenolol] | < 4.60 | < 4.60 |  |  |
| CC(C)c1c(C(=O)Nc2ccccc2)c(-c2ccccc2)c(-c2ccc(F)cc2)n1CC[C@@H](O)C[C@@H](O)CC(=O)O [atorvastatin] | 5.42 | < 4.60 |  |  |
| Cc1ccc(-c2cc(C(F)(F)F)nn2-c2ccc(S(N)(=O)=O)cc2)cc1 [celecoxib] | 4.65 | 5.27 | showed toxicity towards MCF7 |  |
| O=C(O)COCCN1CCN(C(c2ccccc2)c2ccc(Cl)cc2)CC1 (stereo not drawn) [cetirizine] | < 4.60 | < 4.60 |  |  |
| CCN(CC)CCCC(C)Nc1ccnc2cc(Cl)ccc12 (stereo not drawn) [chloroquine] |  |  | showed toxicity towards MCF7 | pIC50 (MCF10A): < 4.60; pIC50 (MCF7 [1]; Homo sapiens, MCF7): 4.97; pIC50 (MCF7 [1]; [5]): < 4.60 |
| CN/C(=N/CCSCc1nc[nH]c1C)NC#N [cimetidine] | < 4.60 | < 4.60 | showed toxicity towards MCF7 |  |
| O=P1(N(CCCl)CCCl)NCCCO1 (stereo not drawn) [cyclophosphamide] |  |  |  | pIC50 (MCF10A): < 4.60; pIC50 (MCF7 [1]; [5]): < 4.60 |
| OCCN(CCO)c1nc(N2CCCCC2)c2nc(N(CCO)CCO)nc(N3CCCCC3)c2n1 [dipyridamole] | < 4.60 | < 4.60 |  | specificity towards MCF7 (MCF7 versus MCF10A): high specificity towards MCF7; reduction of viability of MCF7 (MCF7 [2]; retest n ≥ 3): significantly reduced the viability of MCF7 |
| CCN(CC)C(=S)SSC(=S)N(CC)CC [disulfiram] | < 4.60 | 6.69 |  | specificity towards MCF7 (MCF7 versus MCF10A): high specificity towards MCF7; pIC50 (MCF7 [2]): 7.23 |
| COc1cccc2c1C(=O)c1c(O)c3c(c(O)c1C2=O)C[C@@](O)(C(=O)CO)C[C@@H]3O[C@H]1C[C@H](N)[C@H](O)[C@H](C)O1 [doxorubicin] |  |  |  | pIC50 (MCF7 [2]): 6.52; reduction of viability of MCF7 (MCF7 [2]; retest n ≥ 3): also targeted MCF7; pIC50 (MCF7 [1]; single drug, first round, maximum dose 25 µM, read-out: MCF7 IC50): > 4.60 |
| C[C@]12CC[C@@H]3c4ccc(O)cc4C[C@@H](CCCCCCCCC[S+]([O-])CCCC(F)(F)C(F)(F)F)[C@H]3[C@@H]1CC[C@@H]2O (stereo partly drawn) [fulvestrant] | < 4.60 | < 4.60 |  | specificity towards MCF7 (MCF7 versus MCF10A): showed preference for MCF7; reduction of viability of MCF7 (MCF7 [2]; retest n ≥ 3): also targeted MCF7 |
| NS(=O)(=O)c1cc(C(=O)O)c(NCc2ccco2)cc1Cl [furosemide] | < 4.60 | < 4.60 |  |  |
| CCN(CCO)CCCC(C)Nc1ccnc2cc(Cl)ccc12 (stereo not drawn) [hydroxychloroquine] | < 4.60 | < 4.60 | showed toxicity towards MCF7 | toxicity to MCF7 (MCF7 [2]; retest n ≥ 3, hydroxychloroquine statement at 25 µM): persistent and substantial |
| CCC(C)n1ncn(-c2ccc(N3CCN(c4ccc(OCC5COC(Cn6cncn6)(c6ccc(Cl)cc6Cl)O5)cc4)CC3)cc2)c1=O (stereo not drawn) [itraconazole] | < 4.60 | < 4.60 | showed toxicity towards MCF7 |  |
| COC(=O)Nc1nc2ccc(C(=O)c3ccccc3)cc2[nH]1 [mebendazole] | 4.82 | < 4.60 | showed toxicity towards MCF7 | specificity towards MCF7 (MCF7 versus MCF10A): high specificity towards MCF7 |
| CC12CC3CC(C)(C1)CC(N)(C3)C2 [memantine] | < 4.60 | < 4.60 |  |  |
| Cc1ncc([N+](=O)[O-])n1CCO [metronidazole] | < 4.60 | < 4.60 |  |  |
| O=C(Nc1ccc([N+](=O)[O-])cc1Cl)c1cc(Cl)ccc1O [niclosamide] | 7.21 | 6.16 | comparatively high toxicity; also recorded: showed toxicity towards MCF7 | pIC50 (MCF7 [2]): 5.91; reduction of viability of MCF7 (MCF7 [2]; retest n ≥ 3): significantly reduced the viability of MCF7 |
| COc1ccc2[nH]c([S+]([O-])Cc3ncc(C)c(OC)c3C)nc2c1 (stereo not drawn) [omeprazole] | < 4.60 | < 4.60 |  |  |
| CC(=O)c1c(C)c2cnc(Nc3ccc(N4CCNCC4)cn3)nc2n(C2CCCC2)c1=O [palbociclib] | < 4.60 | < 4.60 |  |  |
| CCN(CC)CCCC(C)Nc1c2ccc(Cl)cc2nc2ccc(OC)cc12 (stereo not drawn) [quinacrine] | 4.99 | 5.41 | showed toxicity towards MCF7 | specificity towards MCF7 (MCF7 versus MCF10A): high specificity towards MCF7; pIC50 (MCF7 [2]): 5.33; reduction of viability of MCF7 (MCF7 [2]; retest n ≥ 3): significantly reduced the viability of MCF7 |
| CCCc1nn(C)c2c(=O)[nH]c(-c3cc(S(=O)(=O)N4CCN(C)CC4)ccc3OCC)nc12 [sildenafil] | < 4.60 | < 4.60 | showed toxicity towards MCF7 |  |
| CCC(C)(C)C(=O)O[C@H]1C[C@@H](C)C=C2C=C[C@H](C)[C@H](CC[C@@H]3C[C@@H](O)CC(=O)O3)[C@H]21 [simvastatin] | 5.14 | 5.25 | showed toxicity towards MCF7 |  |
